Experimental data reported in patent publication US7795261B2, “Substituted 1-piperidin-4-yl-4-pyrrolidin-3-yl-piperazine derivatives and their use as neurokinin antagonists” (Janssen Pharmaceutica NV, priority 2002, dated 2010).

What was measured:
Assay type in all cases: cell-based
[1] = target: NK1 (Homo sapiens, UniProt P25103); assay: Signal transduction (ST), intracellular Ca++ (FLIPR), NK1 antagonistic activity; details: read-out: pIC50 NK1 (converted)
Outline: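 Confluent cells loaded with 2 μM Fluo3 (1 h, 37 °C, probenecid), preincubated 20 min at RT with antagonist concentration range, then agonist added. Peak Ca++ transient read by FLIPR in Krebs buffer pH 7.4; IC50 by non-linear regression.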

[2] = target: T1, NK2 (Homo sapiens, UniProt P21452); assay: Signal transduction (ST), intracellular Ca++ (FLIPR), NK2; details: read-out: pIC50 NK2 (converted)
T1 sequence (P21452 1-398): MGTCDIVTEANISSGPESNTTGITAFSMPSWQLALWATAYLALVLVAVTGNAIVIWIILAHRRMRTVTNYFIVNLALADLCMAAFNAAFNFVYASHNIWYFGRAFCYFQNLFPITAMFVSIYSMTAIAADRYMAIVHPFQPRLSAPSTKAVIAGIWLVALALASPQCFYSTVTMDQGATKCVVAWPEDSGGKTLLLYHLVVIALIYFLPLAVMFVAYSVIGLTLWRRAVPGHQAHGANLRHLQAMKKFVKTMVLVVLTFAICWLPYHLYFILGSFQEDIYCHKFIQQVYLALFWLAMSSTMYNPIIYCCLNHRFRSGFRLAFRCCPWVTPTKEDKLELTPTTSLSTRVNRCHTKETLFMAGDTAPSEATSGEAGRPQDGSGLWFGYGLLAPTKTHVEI
Description: [The procedure below names another target; the source lists this target under the same test.] This test evaluates in vitro functional NK1 antagonistic activity. For the measurements of intracellular Ca^++ concentrations the cells were grown on 96-well (black wall/transparent bottom) plates from Costar for 2 days until they reached confluence. The cells were loaded with 2 μM Fluo3 in DMEM containing 0.1% BSA and 2.5 mM probenecid for 1 h at 37° C. They were washed 3× with a Krebs buffer (140 mM NaCl, 1 mM MgCl2×6H2O, 5 mM KCl, 10 mM glucose, 5 mM HEPES; 1.25 mM CaCl2; pH 7.4) containing 2.5 mM probenecid and 0.1% BSA (Ca^++-buffer). The cells were preincubated with a concentration range of antagonists for 20 min at RT and Ca^++-signals after addition of the agonists were measured in a Fluorescence Image Plate Reader (FLIPR from Molecular Devices, Crawley, England). The peak of the Ca^++-transient was considered as the relevant signal and the mean values of corresponding wells were analysed as described below.
The sigmoidal dose response curves were analysed by computerised curve-fitting, using the GraphPad Program. […] For antagonist responses the IC50-value was calculated using non-linear regression.
The last columns indicates—without being limited therefore—for which the compounds might be most suitable. Of course, since for some neurokinin receptors no data was determined, it is obvious that these compounds might be attributed to another suitable use.

[3] = target: T2, NK3 (Homo sapiens, UniProt P29371); assay: Signal transduction (ST), intracellular Ca++ (FLIPR), NK3; details: read-out: pIC50 NK3 (converted)
T2 sequence (P29371 1-465): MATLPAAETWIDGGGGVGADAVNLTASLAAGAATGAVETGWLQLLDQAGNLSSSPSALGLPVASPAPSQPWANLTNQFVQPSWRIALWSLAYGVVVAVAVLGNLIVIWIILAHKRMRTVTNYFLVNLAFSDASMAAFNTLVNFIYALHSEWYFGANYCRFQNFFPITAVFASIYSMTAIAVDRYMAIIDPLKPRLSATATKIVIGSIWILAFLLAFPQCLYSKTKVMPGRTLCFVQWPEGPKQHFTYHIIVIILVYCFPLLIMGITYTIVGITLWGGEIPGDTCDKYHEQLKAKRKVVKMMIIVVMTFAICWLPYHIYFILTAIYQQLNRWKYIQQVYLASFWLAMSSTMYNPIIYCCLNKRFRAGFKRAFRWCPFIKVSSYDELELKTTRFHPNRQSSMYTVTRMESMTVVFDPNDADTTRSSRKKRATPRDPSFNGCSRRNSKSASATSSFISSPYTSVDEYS

Chain of NK1 (P25103 whole entry): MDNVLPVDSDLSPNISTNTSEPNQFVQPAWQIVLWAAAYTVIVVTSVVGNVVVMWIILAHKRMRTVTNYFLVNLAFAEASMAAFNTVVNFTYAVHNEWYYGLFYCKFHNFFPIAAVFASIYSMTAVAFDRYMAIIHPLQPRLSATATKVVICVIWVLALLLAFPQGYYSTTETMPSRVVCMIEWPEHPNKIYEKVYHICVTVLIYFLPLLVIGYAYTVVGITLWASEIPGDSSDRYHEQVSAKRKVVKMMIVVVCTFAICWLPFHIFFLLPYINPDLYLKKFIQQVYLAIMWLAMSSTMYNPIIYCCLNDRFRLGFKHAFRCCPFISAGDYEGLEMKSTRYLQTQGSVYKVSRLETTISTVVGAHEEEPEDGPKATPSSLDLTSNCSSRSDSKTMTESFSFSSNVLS

Row | Compound | IC50 [1] [nM] | IC50 [2] [nM] | IC50 [3] [nM]
1 | Cn1cccc(C(=O)N2CCC(N3CCN(C4CCN(C(=O)c5cc(C(F)(F)F)cc(C(F)(F)F)c5)C(Cc5ccc(F)c(F)c5)C4)CC3)C2)c1=O (single isomer, unassigned) [Compound 260] | 15.8 | 398 | 3980
2 | O=C(C1CCOC1)N1CCC(N2CCN(C3CCN(C(=O)c4cc(C(F)(F)F)cc(C(F)(F)F)c4)C(Cc4ccc(F)c(F)c4)C3)CC2)C1 (single isomer, unassigned) [Compound 269] | 3.98 | 2510 | 6310
3 | O=C(C1CCOC1)N1CCC(N2CCN(C3CCN(C(=O)c4cc(C(F)(F)F)cc(C(F)(F)F)c4)C(Cc4ccc(F)c(F)c4)C3)CC2)C1 (single isomer, unassigned) [Compound 270] | 3.16 | 2000 | 1260
4 | O=C(C1CCOC1)N1CCC(N2CCN(C3CCN(C(=O)c4cc(C(F)(F)F)cc(C(F)(F)F)c4)C(Cc4ccc(F)c(F)c4)C3)CC2)C1 (single isomer, unassigned) [Compound 281] | 5.01 | 3980 | 3160
5 | O=C(C1CCOC1)N1CCC(N2CCN(C3CCN(C(=O)c4cc(C(F)(F)F)cc(C(F)(F)F)c4)C(Cc4ccc(F)c(F)c4)C3)CC2)C1 (single isomer, unassigned) [Compound 285] | 6.31 | 3160 | 631
6 | O=C(C1CCOC1)N1CCC(N2CCN(C3CCN(C(=O)c4cc(C(F)(F)F)cc(C(F)(F)F)c4)C(Cc4ccc(Cl)c(Cl)c4)C3)CC2)C1 (single isomer, unassigned) [Compound 290] | 3.98 | 1580 | 398
7 | O=C(C1CCOC1)N1CCC(N2CCN(C3CCN(C(=O)c4cc(C(F)(F)F)cc(C(F)(F)F)c4)C(Cc4ccc(Cl)c(Cl)c4)C3)CC2)C1 (single isomer, unassigned) [Compound 330] | 3.16 | 631 | 398
8 | O=C(C1CCOC1)N1CCC(N2CCN(C3CCN(C(=O)c4cc(C(F)(F)F)cc(C(F)(F)F)c4)C(Cc4ccc(Cl)c(Cl)c4)C3)CC2)C1 (single isomer, unassigned) [Compound 331] | 3.16 | 2000 | 251
9 | O=C(C1CCCCC1)N1CCC(N2CCN(C3CCN(C(=O)c4cc(C(F)(F)F)cc(C(F)(F)F)c4)C(Cc4ccc(F)c(F)c4)C3)CC2)C1 (single isomer, unassigned) [Compound 357] | 10 | 3160 | 794
10 | CC(C)(C)C(=O)N1CCC(N2CCN(C3CCN(C(=O)c4cc(C(F)(F)F)cc(C(F)(F)F)c4)C(Cc4ccc(F)c(F)c4)C3)CC2)C1 (single isomer, unassigned) [Compound 364] | 7.94 | 2000 | 631
11 | CC(C)(C)C(=O)N1CCC(N2CCN([C@@H]3CCN(C(=O)c4cc(C(F)(F)F)cc(C(F)(F)F)c4)[C@H](Cc4ccc(F)c(F)c4)C3)CC2)C1 (single isomer, unassigned) [Compound 365] | 7.94 | 2510 | 501
12 | Cn1cccc1C(=O)N1CCC(N2CCN(C3CCN(C(=O)c4cc(C(F)(F)F)cc(C(F)(F)F)c4)C(Cc4ccc(F)c(F)c4)C3)CC2)C1 (single isomer, unassigned) [Compound 366] | 6.31 | 2000 | 100
13 | Cn1cccc1C(=O)N1CCC(N2CCN(C3CCN(C(=O)c4cc(C(F)(F)F)cc(C(F)(F)F)c4)C(Cc4ccc(F)c(F)c4)C3)CC2)C1 (single isomer, unassigned) [Compound 367] | 10 | 1260 | 1580
14 | Cn1cccc(C(=O)N2CCC(N3CCN(C4CCN(C(=O)c5cc(C(F)(F)F)cc(C(F)(F)F)c5)C(Cc5ccc(F)c(F)c5)C4)CC3)C2)c1=O (single isomer, unassigned) [Compound 368] | 10 | 3160 | 3160
15 | Cc1nnsc1C(=O)N1CCC(N2CCN(C3CCN(C(=O)c4cc(C(F)(F)F)cc(C(F)(F)F)c4)C(Cc4ccccc4)C3)CC2)C1 (single isomer, unassigned) [Compound 380] | 6.31 | 7940 | 1580
16 | O=C(C1CCCCC1)N1CCC(N2CCN(C3CCN(C(=O)c4cc(C(F)(F)F)cc(C(F)(F)F)c4)C(Cc4ccccc4)C3)CC2)C1 (single isomer, unassigned) [Compound 403] | 7.94 | 2510 | 2510
17 | O=C(c1cc(C(F)(F)F)cc(C(F)(F)F)c1)N1CC[C@H](N2CCN(C3CCN(c4cnccn4)C3)CC2)C[C@H]1Cc1ccccc1 (stereo partly drawn) [Compound 4] | 25.1 | 6310 | 158
18 | O=C(c1cc(C(F)(F)F)cc(C(F)(F)F)c1)N1CCC(N2CCN(C3CCN(c4ncccn4)C3)CC2)CC1Cc1ccccc1 (stereo not drawn) [Compound 5] | 31.6 | 6310 | 631
19 | Cc1ccccc1C(=O)N1CCC(N2CCN([C@H]3CCN(C(=O)c4cc(C(F)(F)F)cc(C(F)(F)F)c4)[C@H](Cc4ccccc4)C3)CC2)C1 (stereo partly drawn) [Compound 13] | 25.1 | 3980 | 200
20 | COc1ccccc1C(=O)N1CCC(N2CCN([C@H]3CCN(C(=O)c4cc(C(F)(F)F)cc(C(F)(F)F)c4)[C@H](Cc4ccccc4)C3)CC2)C1 (stereo partly drawn) [Compound 14] | 7.94 | 5010 | 316
21 | O=C(c1ccccc1F)N1CCC(N2CCN([C@H]3CCN(C(=O)c4cc(C(F)(F)F)cc(C(F)(F)F)c4)[C@H](Cc4ccccc4)C3)CC2)C1 (stereo partly drawn) [Compound 16] | 31.6 | 5010 | 2510
22 | O=C(c1ccccc1Cl)N1CCC(N2CCN([C@H]3CCN(C(=O)c4cc(C(F)(F)F)cc(C(F)(F)F)c4)[C@H](Cc4ccccc4)C3)CC2)C1 (stereo partly drawn) [Compound 17] | 15.8 | 7940 | 251
23 | Cc1cccc(C(=O)N2CCC(N3CCN([C@H]4CCN(C(=O)c5cc(C(F)(F)F)cc(C(F)(F)F)c5)[C@H](Cc5ccccc5)C4)CC3)C2)c1C (stereo partly drawn) [Compound 19] | 39.8 | 7940 | 398
24 | O=C(c1cc(F)ccc1F)N1CCC(N2CCN([C@H]3CCN(C(=O)c4cc(C(F)(F)F)cc(C(F)(F)F)c4)[C@H](Cc4ccccc4)C3)CC2)C1 (stereo partly drawn) [Compound 21] | 12.6 | 5010 | 398
25 | Cn1ccc(C(=O)N2CCC(N3CCN([C@H]4CCN(C(=O)c5cc(C(F)(F)F)cc(C(F)(F)F)c5)[C@H](Cc5ccccc5)C4)CC3)C2)c1 (stereo partly drawn) [Compound 23] | 31.6 | 3160 | 501
26 | Cn1cccc1C(=O)N1CCC(N2CCN([C@H]3CCN(C(=O)c4cc(C(F)(F)F)cc(C(F)(F)F)c4)[C@H](Cc4ccccc4)C3)CC2)C1 (stereo partly drawn) [Compound 24] | 25.1 | 6310 | 251
27 | O=C(c1cn[nH]c1)N1CCC(N2CCN([C@H]3CCN(C(=O)c4cc(C(F)(F)F)cc(C(F)(F)F)c4)[C@H](Cc4ccccc4)C3)CC2)C1 (stereo partly drawn) [Compound 25] | 20 | 5010 | 5010
28 | Cc1cc(C(=O)N2CCC(N3CCN([C@H]4CCN(C(=O)c5cc(C(F)(F)F)cc(C(F)(F)F)c5)[C@H](Cc5ccccc5)C4)CC3)C2)n(C)n1 (stereo partly drawn) [Compound 26] | 10 | 1580 | 158
29 | Cc1cc(C(=O)N2CCC(N3CCN([C@H]4CCN(C(=O)c5cc(C(F)(F)F)cc(C(F)(F)F)c5)[C@H](Cc5ccccc5)C4)CC3)C2)n(C(C)(C)C)n1 (stereo partly drawn) [Compound 27] | 15.8 | 631 | 316
